Measurements: paper PMC6038383, “Crystal structure of the spliceosomal DEAH-box ATPase Prp2” (Acta Crystallographica. Section D, Structural Biology, 2018)

Molecular target: T1, Prp2 from C. thermophilum (ctPrp2), residues 270-921 (Thermochaetoides thermophila, UniProt G0SEG4)
T1 construct: gene CTHT_0063660; N-terminally truncated residues 270-921, GST tag cleaved with PreScission protease, expressed in E. coli Rosetta 2 (DE3)
T1 sequence (G0SEG4 270-921): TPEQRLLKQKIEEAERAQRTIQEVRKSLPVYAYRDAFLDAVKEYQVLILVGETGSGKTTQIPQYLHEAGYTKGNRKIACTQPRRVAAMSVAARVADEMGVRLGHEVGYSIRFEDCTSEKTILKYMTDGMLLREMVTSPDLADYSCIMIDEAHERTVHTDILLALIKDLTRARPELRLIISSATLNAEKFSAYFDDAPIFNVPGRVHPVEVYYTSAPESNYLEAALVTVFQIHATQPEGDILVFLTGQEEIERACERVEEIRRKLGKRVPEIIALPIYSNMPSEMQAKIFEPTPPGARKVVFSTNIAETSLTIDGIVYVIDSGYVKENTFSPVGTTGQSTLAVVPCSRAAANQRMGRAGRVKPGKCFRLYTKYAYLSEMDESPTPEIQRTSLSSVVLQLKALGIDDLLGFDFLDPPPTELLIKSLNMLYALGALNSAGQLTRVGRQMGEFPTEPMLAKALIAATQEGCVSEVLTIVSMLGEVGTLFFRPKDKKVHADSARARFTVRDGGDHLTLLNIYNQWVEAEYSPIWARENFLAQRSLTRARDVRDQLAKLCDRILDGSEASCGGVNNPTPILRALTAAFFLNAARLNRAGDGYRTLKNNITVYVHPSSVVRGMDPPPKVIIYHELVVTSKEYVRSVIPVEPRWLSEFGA
Test: isothermal titration calorimetry
Assay type: binding

- Kd: 179 nM
Structure (SMILES): Nc1ncnc2c1ncn2[C@@H]1O[C@H](COP(=O)(O)OP(=O)(O)O)[C@@H](O)[C@H]1O [ADP]
